Tested on: T1, L-Glutaminase (Streptomyces roseolus strain ZKB1)
T1 construct: gene glsA
Test: ammonia release by Nessler's reagent, […] nm; Lineweaver-Burk
Assay type: cell-based
Conditions: free enzyme; phosphate buffer pH 7.0; 37 °C; 30 min; 25-100 mM substrate

Km: 13.9 ± 0.8 mM
Structure (SMILES): NC(=O)CC[C@H](N)C(=O)O [L-glutamine]
